For one data set, the system named is Pshp3 luxAB reporter. As to the kind of experiment: Luciferase reporter assay, Pshp3-luxAB, with synthetic peptides. The format is cell-based, Streptococcus pyogenes NZ131. To be noted: for Induction of luciferase activity at Pshp3 / Induction of luciferase at Pshp3 in wild-type bacteria: 50 nM peptide in CDM; for Induction of luciferase activity at Pshp3: crude peptide (31-50% pure), DMSO vehicle control, representative of at least three experiments; for Induction of luciferase at Pshp3 in wild-type bacteria: wild-type reporter strain JCC174 (mutated shp3 start codon); for Response at Pshp3 in Δrgg2 strain: Δrgg2 reporter strain JCC175. The procedure:
(§1) Figure 3 SHP stimulation of luciferase production. For panels A and C, overnight GAS cultures were diluted into CDM and followed for growth and light production over time. For panels B and D-H, reporter strains were grown to log-phase (OD600 between 0.3 and 0.5) and then diluted 13-fold into conditioned (panel B) or fresh CDM containing 50 nM of the indicated peptide (panels D-H). For all synthetic peptide experiments, DMSO was included as a vehicle control. Data shown are representative of at least three independent experiments. (A) Expression of shp3 under its own promoter from a multi-copy plasmid (pSHP3) induces luciferase expression at both Pshp2 (triangles) and Pshp3 (squares); pLZ12-Sp is the vector-only control. (B) Luciferase-inducing activity is present in a cell-free culture supernatant prepared from mid-log phase Δrgg3 donor (JCC131) but not in wild-type (NZ131) or Δrgg3-shp3 (JCC132)-conditioned supernatants; Δrgg3-shp3 (JCC159) was used as the reporter strain, and fresh medium was included as a control. (C) Luciferase activity of a Δrgg3-shp3 strain (JCC168) expressing truncated versions of shp3 indicates the importance of the C-terminus. All truncation plasmids were derived from pSHP3; pSHP3_17-23 includes a methionine to initiate translation. (D) Synthetic full-length (sSHP3) and C-terminal eight amino acids (sSHP3-C8), but not reverse peptide (sSHP3-rev), induce luciferase activity in a Δrgg3-shp3 reporter strain (JCC168). (E) Amino acid substitutions within the C-terminus of SHP3 alter its reporter-inducing activity in a Δrgg3-shp3 reporter strain (JCC168). sSHP3-C8: DIIIIVGG; the sequences of synthetic peptides with amino acids substitutions are shown in the panel legend. […] Reverse peptide (sSHP2-C8-rev) was included as a control. (G) sSHP3-C8 induces a sustained response from the Pshp2 reporter in the wild-type strain (BNL148), while luciferase activity of a Δrgg3-shp3 strain (BNL150) wanes. (H) Synthetic C8 peptides stimulate modest luciferase activity in Δrgg2 strains with integrated Pshp2 (solid lines; BNL152) or Pshp3 (dotted lines; JCC175) reporters.
(§2) For luciferase assays, isolated colonies from the strains of interest were picked from a freshly streaked plate, inoculated into THY broth and grown overnight at 30°C. In the morning, cells were diluted 100-fold into CDM and incubated at 37°C. At each time point, 50 µL of each culture was removed to an opaque 96-well plate, samples were exposed to decyl aldehyde (Sigma) fumes for one minute, and counts per second (CPS) were quantified using a Wallac 1450 microbeta scintillation counter; the optical density (OD) at 600 nm was also measured at each time point. Relative light units (RLU) were calculated by normalizing CPS to OD. For the conditioned media experiment, strains of interest were grown in CDM to an OD of 0.3 to 0.5, cells were spun down, and supernatants were passed through a 0.22 µm filter; log-phase Δrgg3-shp3 reporter cells (JCC159) were diluted 1∶12 into conditioned supernatants, and light activity and OD were monitored as described above. For experiments with synthetic peptides, reporter strains were grown to an OD of 0.3 to 0.5 and then diluted into fresh CDM containing the peptide of interest, and light activity and OD were monitored as described above.
Synthetic peptides were purchased from Neo-Peptide (Cambridge, MA). Purities of crude preparations used in luciferase assays ranged from 31% to 50%. 95% pure preparations were used for electrophoretic mobility shift assays (EMSA) as described below. All peptides were reconstituted as 2 mM stocks in DMSO and stored in aliquots at -80°C. Subsequent dilutions for working stocks (50 µM) were made in DMSO and stored at −20°C.

For data set [1], the system named is Rgg3 (Streptococcus pyogenes NZ131 (serotype M49)). As to the kind of experiment: EMSA. To be noted: 20 mM HEPES pH 7.9, 100 mM KCl, 12.5 mM MgCl2, 0.2 mM EDTA, 0.5 mM DTT, 0.5 mM CaCl2, 50 ug/mL salmon sperm DNA, 0.001 U/uL poly(dI-dC), 100 ug/mL BSA, 12% ….
The next data set deals with Pshp2 luxAB reporter. As to the kind of experiment: Luciferase reporter assay, Pshp2-luxAB, with synthetic peptides. The format is cell-based, Streptococcus pyogenes NZ131. To be noted: for Induction of luciferase at Pshp2 in wild-type bacteria: wild-type reporter strain BNL148, 50 nM peptide in CDM; for Maximal induction at Pshp2 in Δrgg2 strain: Δrgg2 reporter strain BNL152. The protocol:
as §1, §2
Synthetic peptides were purchased from Neo-Peptide (Cambridge, MA). Purities of crude preparations used in luciferase assays ranged from 31% to 50%. […]

For another data set, the system named is Rgg3-Pshp3 DNA complex. As to the kind of experiment: EMSA, effect of peptide on Rgg3 binding to Pshp3 probe. To be noted: 2 µM pure (>95%) peptide added 20 min after 10 nM FAM probe; room temperature; native PAGE. Also noted: species or system Streptococcus pyogenes NZ131. The protocol:
(§3) The NZ131 rgg3 gene (Spy 49_0449c) was amplified using gene-specific primers (rgg3_fwd_NdeI/rgg3_rev_BamHI) and cloned into a modified pET expression vector bearing N-terminal His-6 and SUMO tags; the resulting vector, pCA102, was electroporated into E. coli C41(DE3) before each purification. Expression of His6-sumo-rgg3 was induced at an OD600 of 0.8 with 0.5 mM IPTG for six hours at 30°C. Cells were pelleted and suspended in Buffer A (20 mM sodium phosphate buffer, pH 7.5; 1.5 mM MgCl2, 280 mM NaCl, 20 mM imidazole, 10 mM β-mercaptoethanol) with 0.1 mg mL^−1 lysozyme, 0.01 mg mL^−1 DNaseI (Sigma) and Complete EDTA-free protease inhibitor (Roche). Cells were disrupted by sonication on ice, and cellular debris was removed by centrifugation at 45,000 x g for 20 min at 4°C. His6-SUMO-Rgg3 was adsorbed to a HisTrap-HP Nickel column (GE Biosciences), then washed with 50 mM imidazole and eluted with 300 mM imidazole. The eluate was immediately exchanged into fresh Buffer A using a Zeba spin desalting column, 7K MWCO (Thermo Scientific). […]
(§4) All DNA fragments for EMSAs were amplified from chromosomal NZ131 DNA by PCR using primers described in Table S1, with select primers containing 5′-FAM fluorescent tags (Integrated DNA Technologies). […] All gel shifts were detected by fluorescence imaging using a Typhoon PhosphorImager (GE Life Sciences).

The next data set deals with Rgg3-Pshp2 DNA complex. As to the kind of experiment: EMSA, effect of peptide on Rgg3 binding to Pshp2 probe. More on the design: species or system Streptococcus pyogenes NZ131. To be noted: 2 µM pure (>95%) peptide added 20 min after 10 nM FAM probe; room temperature; native PAGE. The protocol: as §3, §4
For data set [2], the system named is GAS NZ131 biofilm biomass. As to the kind of experiment: Biofilm assay, crystal violet staining. The data set is classed as cell-based, Streptococcus pyogenes NZ131. The note with it: 50 nM peptide. The protocol:
Figure 6 Influence of Rgg regulators on biofilm production. SHPs can enhance biofilm biogenesis via the Rgg2/3 regulatory circuit and counter biofilm disassembly promoted by RopB. Crystal violet staining was performed to measure biofilm biomass of NZ131 derivatives grown 48 hours in 24-well polystyrene plates with (dark gray bars) or without (light gray bars) the addition of 50 nM sSHP3-C8. Levels of biofilm production were normalized to that of untreated NZ131 (wild type). Error bars indicate standard error from a minimum of three independent experiments.
Assays were performed as described by Manetti et al, with slight modifications. Briefly, each strain was grown overnight in THY at 30°C, diluted 1∶10 into fresh CDM, and 0.5 mL volumes were aliquoted to three separate wells of a 24-well polystyrene plate. When indicated, synthetic peptide was added to a final concentration of 50 nM. Plates where incubated at 37°C with 5% CO2 for 24 hours, then wells were washed with PBS and fresh CDM (containing peptide, if appropriate) was added. After an additional 24 hours of growth, each well was washed three times with PBS and stained with 0.2% crystal violet for 10 min. Excess crystal violet was aspirated off, and biofilms were washed three times with PBS. The biomass was then suspended in 1% SDS, and the absorbance at 540 nm was measured. Each strain was tested a minimum of three independent times on separate days, and each trial included NZ131 as the reference strain.

Where [3] appears, read: Δrgg3-shp3 reporter strain JCC168.

As to “DIIIIVG- [sSHP3-C8 without the C-terminal glycine]”, the “Induction of luciferase activity at Pshp3” value in the data set on Pshp3 luxAB reporter (setting [3]) is on record as “significantly decreased light activity”.
Still for that read-out and setting: under “NIIIIVGG [sSHP3-C8 with aspartic acid replaced by asparagine]” stands “decreased activity”.
Regarding Pshp3 probe, the K half in data set [1] worked out at 100 nM.
As for “EIIIIVGG [sSHP3-C8 with aspartic acid substituted by glutamate]”, in the data set on Pshp3 luxAB reporter (setting [3]), the “Induction of luciferase activity at Pshp3” value was “retained full activity”.
“DIIIIVGG [sSHP3-C8, synthetic peptide containing the C-terminal eight amino acids of SHP3 (DIIIIVGG)]”: in the data set with Pshp3 luxAB reporter, the “Induction of luciferase at Pshp3 in wild-type bacteria” value is “stimulate induction and cross-induction”. Besides, the “Response of Pshp3 reporter in ΔoppD mutant” value with Pshp3 luxAB reporter (ΔoppD reporter strain JCC163, 50 nM peptide, response restored by pOppD) is “fails to respond”. Besides, the “Response at Pshp3 in Δrgg2 strain” value with Pshp3 luxAB reporter (50 nM peptide) is given as “no response”. Also, the “Induction of luciferase activity at Pshp3” value with Pshp3 luxAB reporter (setting [3]) was “Luciferase induction was also observed”. The “Reporter induction relative to sSHP3 at identical molar concentrations” value in the data set with Pshp3 luxAB reporter (Δrgg3-shp3 reporter strain JCC168, Pshp3, 50 nM peptide) was “more than 10 fold”. Besides, the “Induction of luciferase at Pshp2 in wild-type bacteria” value in the data set on Pshp2 luxAB reporter was “stimulate induction and cross-induction”. In addition, the “Maximal induction at Pshp2 in Δrgg2 strain” value with Pshp2 luxAB reporter (50 nM peptide) is listed as about 40 fold. Besides, the “Luciferase activity at Pshp2 over time in Δrgg3-shp3 strain” value in the data set with Pshp2 luxAB reporter (Δrgg3-shp3 reporter strain BNL150, 50 nM peptide, compared with wild type BNL148) is “wanes”. Also, in the data set with Rgg3-Pshp3 DNA complex, the “Disruption of Rgg3 binding to Pshp3 DNA” value is “Rgg3-DNA complexes were disrupted”. Further, the “Disruption of Rgg3 binding to Pshp2 DNA” value with Rgg3-Pshp2 DNA complex is recorded as “Rgg3-DNA complexes were disrupted”. In addition, the “Biofilm formation, wild-type NZ131” value in data set [2] (48 hours in CDM, 24-well polystyrene plates, normalized to untreated NZ131, minimum of three experiments) was “two-fold increase”. The “Biofilm production, ΔoppD mutant” value in data set [2] (ΔoppD (JCC135), 48 hours, crystal violet) is given as “could not stimulate biofilms”. In addition, in data set [2] (Δrgg2 (JCC137), 48 hours, crystal violet), the “Biofilm production, Δrgg2 mutant” value is “could not stimulate biofilms”. For the same substance, the “Biofilm production, Δrgg3 mutant” value in data set [2] (Δrgg3 (JCC131), 48 hours, crystal violet) is “did not further enhance biofilms”. Further, in data set [2] (Δrgg3-shp3 (JCC132), 48 hours, crystal violet), the “Biofilm production, Δrgg3-shp3 mutant” value is on record as “partially complemented”. Also, the “Biofilm biomass, ΔropB strain” value in data set [2] (ΔropB (BNL146), 48 hours, crystal violet) is given as “increased six-fold”.
Pshp2 probe: the K half in data set [1] was 100 nM.
For “sSHP2-C8: synthetic C-terminal eight amino acids of SHP2 (DILIIVGG)”, the “Induction of luciferase at Pshp3 in wild-type bacteria” value in the data set with Pshp3 luxAB reporter is “stimulate induction and cross-induction”. Moreover, in the data set with Pshp3 luxAB reporter (50 nM peptide), the “Response at Pshp3 in Δrgg2 strain” value is recorded as “no response”. In the data set with Pshp2 luxAB reporter, the “Induction of luciferase at Pshp2 in wild-type bacteria” value is “stimulate induction and cross-induction”. Also, the “Maximal induction at Pshp2 in Δrgg2 strain” value with Pshp2 luxAB reporter (50 nM peptide) came to 7 fold. Moreover, the “Disruption of Rgg3 binding to Pshp3 DNA” value with Rgg3-Pshp3 DNA complex is reported as “only induced a small amount of disruption”. The “Disruption of Rgg3 binding to Pshp2 DNA” value in the data set on Rgg3-Pshp2 DNA complex was “only induced a small amount of disruption”.
In the case of “-IIIIVGG [sSHP3-C8 without the N-terminal aspartic acid]”, in the data set on Pshp3 luxAB reporter (setting [3]), the “Induction of luciferase activity at Pshp3” value is “complete loss of luciferase activity”.

The values are drawn from article PMC3150281, “Two Group A Streptococcal Peptide Pheromones Act through Opposing Rgg Regulators to Control Biofilm Development” (PLoS Pathogens, 2011).
